# According to US20100160351A1, “PHARMACEUTICAL COMPOSITIONS AND METHODS FOR TREATING HYPERURICEMIA AND RELATED DISORDERS” (NUON THERAPEUTICS, INC., priority 2008, published 2010):
# Test system: serum uric acid (sUA) levels in hyperuricemic patients
# Experiment: PRESTO study: change in serum uric acid in hyperuricemic patients (baseline >=8 mg/dL), Tranilast twice daily for 1 or 3 months
# Assay type: in vivo, human
# Experimental: The PRESTO (Prevention of Restenosis with Tranilast and its Outcomes) study was a multicenter study of ˜11,500 patients undergoing percutaneous transluminal coronary revascularization (PTCR) with or without stenting for single or multiple vessels over a 9-month period. The study compared the composite clinical event rate of death, myocardial infarction, or need for ischemia-driven target vessel revascularization in patients treated with Tranilast (300 and 450 mg twice daily) for 1 or 3 months versus placebo. Description of the study protocol and patient population can be found in Holmes et al., The PRESTO (Prevention of Restenosis with Tranilast and its Outcomes) protocol: A double-blind, placebo-controlled trial, Am Heart J 2000; 139:23-31; and Holmes et al., Results of Prevention of REStenosis with Tranilast and its Outcomes (PRESTO) Trial, Circulation. 2002; 106:1243, both of which are incorporated by reference herein in their entirety.
# Gout was a contraindication for patient enrollment in the PRESTO trial. Nevertheless, 1100 patients enrolled in the trial were identified with baseline hyperuricemia defined as initial serum uric acid (sUA) levels greater than or equal to 7 mg/dL. Of these, approximately 300 participants had baseline serum uric acid levels greater than or equal to 8 mg/dL. […] As indicated in FIG. 1 and Table 4, some patients were treated with placebo, some patients were treated with Tranilast for 4 weeks followed by placebo, and some patients were treated with Tranilast for 12 weeks.
compound,measurement,setting,value
"COc1ccc(/C=C/C(=O)Nc2ccccc2C(=O)O)cc1OC [Tranilast, 2-[[3-(3,4-dimethoxyphenyl)-1-oxo-2-propenyl]amino]benzoic acid]","Change from Baseline in Uric Acid, Max","3M TRAN 300 mg, Follow-Up",3.04 mg/dL
same,"Change from Baseline in Uric Acid, Mean (SD)","3M TRAN 300 mg, Follow-Up",−0.00 (1.519) mg/dL
same,"Change from Baseline in Uric Acid, Median","3M TRAN 300 mg, Follow-Up",-0.13 mg/dL
same,"Change from Baseline in Uric Acid, Min","3M TRAN 300 mg, Follow-Up",-3.00 mg/dL
same,"Change from Baseline in Uric Acid, Max","3M TRAN 300 mg, Post-PTCR",1.90 mg/dL
same,"Change from Baseline in Uric Acid, Mean (SD)","3M TRAN 300 mg, Post-PTCR",−1.81 (1.966) mg/dL
same,"Change from Baseline in Uric Acid, Median","3M TRAN 300 mg, Post-PTCR",-1.58 mg/dL
same,"Change from Baseline in Uric Acid, Min","3M TRAN 300 mg, Post-PTCR",-14.79 mg/dL
same,"Change from Baseline in Uric Acid, Max","3M TRAN 300 mg, Week 1",3.14 mg/dL
same,"Change from Baseline in Uric Acid, Mean (SD)","3M TRAN 300 mg, Week 1",−2.96 (2.394) mg/dL
same,"Change from Baseline in Uric Acid, Median","3M TRAN 300 mg, Week 1",-2.85 mg/dL
same,"Change from Baseline in Uric Acid, Min","3M TRAN 300 mg, Week 1",-15.66 mg/dL
same,"Change from Baseline in Uric Acid, Max","3M TRAN 300 mg, Week 2",2.30 mg/dL
same,"Change from Baseline in Uric Acid, Mean (SD)","3M TRAN 300 mg, Week 2",−2.98 (2.224) mg/dL
same,"Change from Baseline in Uric Acid, Median","3M TRAN 300 mg, Week 2",-2.94 mg/dL
same,"Change from Baseline in Uric Acid, Min","3M TRAN 300 mg, Week 2",-15.09 mg/dL
same,"Change from Baseline in Uric Acid, Max","3M TRAN 300 mg, Week 3",1.92 mg/dL
same,"Change from Baseline in Uric Acid, Mean (SD)","3M TRAN 300 mg, Week 3",−2.92 (1.946) mg/dL
same,"Change from Baseline in Uric Acid, Median","3M TRAN 300 mg, Week 3",-3.00 mg/dL
same,"Change from Baseline in Uric Acid, Min","3M TRAN 300 mg, Week 3",-6.13 mg/dL
same,"Change from Baseline in Uric Acid, Max","3M TRAN 300 mg, Week 4",1.98 mg/dL
same,"Change from Baseline in Uric Acid, Mean (SD)","3M TRAN 300 mg, Week 4",−2.83 (2.212) mg/dL
same,"Change from Baseline in Uric Acid, Median","3M TRAN 300 mg, Week 4",-2.80 mg/dL
same,"Change from Baseline in Uric Acid, Min","3M TRAN 300 mg, Week 4",-14.30 mg/dL
same,"Change from Baseline in Uric Acid, Max","3M TRAN 300 mg, Week 6",8.50 mg/dL
same,"Change from Baseline in Uric Acid, Mean (SD)","3M TRAN 300 mg, Week 6",−2.75 (2.755) mg/dL
same,"Change from Baseline in Uric Acid, Median","3M TRAN 300 mg, Week 6",-3.00 mg/dL
same,"Change from Baseline in Uric Acid, Min","3M TRAN 300 mg, Week 6",-15.65 mg/dL
same,"Change from Baseline in Uric Acid, Max","3M TRAN 300 mg, Week 8",1.70 mg/dL
same,"Change from Baseline in Uric Acid, Mean (SD)","3M TRAN 300 mg, Week 8",−2.76 (2.451) mg/dL
same,"Change from Baseline in Uric Acid, Median","3M TRAN 300 mg, Week 8",-2.71 mg/dL
same,"Change from Baseline in Uric Acid, Min","3M TRAN 300 mg, Week 8",-15.77 mg/dL
same,"Change from Baseline in Uric Acid, Max","3M TRAN 300 mg, Week 10",2.30 mg/dL
same,"Change from Baseline in Uric Acid, Mean (SD)","3M TRAN 300 mg, Week 10",−2.97 (2.490) mg/dL
same,"Change from Baseline in Uric Acid, Median","3M TRAN 300 mg, Week 10",-2.98 mg/dL
same,"Change from Baseline in Uric Acid, Min","3M TRAN 300 mg, Week 10",-15.65 mg/dL
same,"Change from Baseline in Uric Acid, Max","3M TRAN 300 mg, Week 12",3.60 mg/dL
same,"Change from Baseline in Uric Acid, Mean (SD)","3M TRAN 300 mg, Week 12",−2.74 (2.634) mg/dL
same,"Change from Baseline in Uric Acid, Median","3M TRAN 300 mg, Week 12",-2.69 mg/dL
same,"Change from Baseline in Uric Acid, Min","3M TRAN 300 mg, Week 12",-16.02 mg/dL
same,"Change from Baseline in Uric Acid, Max","3M TRAN 450 mg, Follow-Up",1.80 mg/dL
same,"Change from Baseline in Uric Acid, Mean (SD)","3M TRAN 450 mg, Follow-Up",−0.67 (1.277) mg/dL
same,"Change from Baseline in Uric Acid, Median","3M TRAN 450 mg, Follow-Up",-0.70 mg/dL
same,"Change from Baseline in Uric Acid, Min","3M TRAN 450 mg, Follow-Up",-2.90 mg/dL
same,"Change from Baseline in Uric Acid, Max","3M TRAN 450 mg, Post-PTCR",1.70 mg/dL
same,"Change from Baseline in Uric Acid, Mean (SD)","3M TRAN 450 mg, Post-PTCR",−2.16 (1.577) mg/dL
same,"Change from Baseline in Uric Acid, Median","3M TRAN 450 mg, Post-PTCR",-1.90 mg/dL
same,"Change from Baseline in Uric Acid, Min","3M TRAN 450 mg, Post-PTCR",-7.34 mg/dL
same,"Change from Baseline in Uric Acid, Max","3M TRAN 450 mg, Week 1",0.90 mg/dL
same,"Change from Baseline in Uric Acid, Mean (SD)","3M TRAN 450 mg, Week 1",−3.84 (1.839) mg/dL
same,"Change from Baseline in Uric Acid, Median","3M TRAN 450 mg, Week 1",-3.99 mg/dL
same,"Change from Baseline in Uric Acid, Min","3M TRAN 450 mg, Week 1",-8.79 mg/dL
same,"Change from Baseline in Uric Acid, Max","3M TRAN 450 mg, Week 2",0.92 mg/dL
same,"Change from Baseline in Uric Acid, Mean (SD)","3M TRAN 450 mg, Week 2",−4.05 (1.861) mg/dL
same,"Change from Baseline in Uric Acid, Median","3M TRAN 450 mg, Week 2",-4.56 mg/dL
same,"Change from Baseline in Uric Acid, Min","3M TRAN 450 mg, Week 2",-8.72 mg/dL
same,"Change from Baseline in Uric Acid, Max","3M TRAN 450 mg, Week 3",1.50 mg/dL
same,"Change from Baseline in Uric Acid, Mean (SD)","3M TRAN 450 mg, Week 3",−2.84 (2.227) mg/dL
same,"Change from Baseline in Uric Acid, Median","3M TRAN 450 mg, Week 3",-3.79 mg/dL
same,"Change from Baseline in Uric Acid, Min","3M TRAN 450 mg, Week 3",-5.79 mg/dL
same,"Change from Baseline in Uric Acid, Max","3M TRAN 450 mg, Week 4",1.43 mg/dL
same,"Change from Baseline in Uric Acid, Mean (SD)","3M TRAN 450 mg, Week 4",−3.70 (2.190) mg/dL
same,"Change from Baseline in Uric Acid, Median","3M TRAN 450 mg, Week 4",-3.90 mg/dL
same,"Change from Baseline in Uric Acid, Min","3M TRAN 450 mg, Week 4",-8.40 mg/dL
same,"Change from Baseline in Uric Acid, Max","3M TRAN 450 mg, Week 6",2.70 mg/dL
same,"Change from Baseline in Uric Acid, Mean (SD)","3M TRAN 450 mg, Week 6",−3.89 (2.265) mg/dL
same,"Change from Baseline in Uric Acid, Median","3M TRAN 450 mg, Week 6",-4.39 mg/dL
same,"Change from Baseline in Uric Acid, Min","3M TRAN 450 mg, Week 6",-8.69 mg/dL
same,"Change from Baseline in Uric Acid, Max","3M TRAN 450 mg, Week 8",1.40 mg/dL
same,"Change from Baseline in Uric Acid, Mean (SD)","3M TRAN 450 mg, Week 8",−3.65 (2.104) mg/dL
same,"Change from Baseline in Uric Acid, Median","3M TRAN 450 mg, Week 8",-3.83 mg/dL
same,"Change from Baseline in Uric Acid, Min","3M TRAN 450 mg, Week 8",-7.16 mg/dL
same,"Change from Baseline in Uric Acid, Max","3M TRAN 450 mg, Week 10",1.50 mg/dL
same,"Change from Baseline in Uric Acid, Mean (SD)","3M TRAN 450 mg, Week 10",−3.73 (2.306) mg/dL
same,"Change from Baseline in Uric Acid, Median","3M TRAN 450 mg, Week 10",-4.10 mg/dL
same,"Change from Baseline in Uric Acid, Min","3M TRAN 450 mg, Week 10",-8.60 mg/dL
same,"Change from Baseline in Uric Acid, Max","3M TRAN 450 mg, Week 12",0.50 mg/dL
same,"Change from Baseline in Uric Acid, Mean (SD)","3M TRAN 450 mg, Week 12",−3.79 (2.065) mg/dL
same,"Change from Baseline in Uric Acid, Median","3M TRAN 450 mg, Week 12",-4.30 mg/dL
same,"Change from Baseline in Uric Acid, Min","3M TRAN 450 mg, Week 12",-8.12 mg/dL
same,serum uric acid levels in patients treated with Tranilast,"analysis of PRESTO data, 300 and 450 mg twice daily",markedly decreased
